In experiment [1] the target is T1, IF2 (protein core, residues 1-363) (Thermus thermophilus, UniProt P48515).
T1 construct: gene infB; proteolysed during crystallization to residues 1-363 (40 kDa; N domain, G domain, domain II, start of domain III); one molecule per asymmetric unit
T1 sequence (P48515 1-363): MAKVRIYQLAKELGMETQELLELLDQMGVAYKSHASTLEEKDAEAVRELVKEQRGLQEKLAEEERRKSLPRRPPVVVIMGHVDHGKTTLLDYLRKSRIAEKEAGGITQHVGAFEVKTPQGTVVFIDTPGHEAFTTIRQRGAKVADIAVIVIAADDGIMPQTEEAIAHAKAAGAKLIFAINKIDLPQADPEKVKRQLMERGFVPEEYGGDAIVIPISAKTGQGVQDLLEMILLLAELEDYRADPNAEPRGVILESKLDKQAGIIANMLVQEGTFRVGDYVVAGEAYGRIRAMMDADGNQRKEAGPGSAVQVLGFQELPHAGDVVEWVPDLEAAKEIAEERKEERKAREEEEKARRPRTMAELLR
Nature of the experiment: X-ray crystal structure, […] A, crystal soaking. As to conditions: 5 mM GDP added to the crystallization drop; Mg2+ bound; pH 7.5 protein buffer; G-domain P-loop site. In kind it is binding.

For experiment [2], the target named is T1, IF2 (protein core, residues 1-363). In words: X-ray crystal structure, […] A, crystal soaking. As to conditions: 30 s soak with GTP-containing cryoprotectant; Mg2+ bound; pH 7.5 protein buffer; G-domain P-loop site; GTP occupancy 0.68. The experiment is classed as binding.

As to `Nc1nc2c(ncn2[C@@H]2O[C@H](COP(=O)(O)OP(=O)(O)O)[C@@H](O)[C@H]2O)c(=O)[nH]1` [GDP], in experiment [1], the “X-ray crystal structure, 2.3 A, crystal soaking” value is 4b3x, 4b48, 4b47 for the apo, GTP and GDP complexes, respectively. In the case of `Nc1nc2c(ncn2[C@@H]2O[C@H](COP(=O)(O)OP(=O)(O)OP(=O)(O)O)[C@@H](O)[C@H]2O)c(=O)[nH]1` [GTP], the “X-ray crystal structure, 2.8 A, crystal soaking” value in experiment [2] is 4b3x, 4b48, 4b47 for the apo, GTP and GDP complexes, respectively.
